# Measured values reported in patent US20060078535A1, “Anticancer compounds and methods” (The Regents of the University of Michigan, priority 2004, published 2006).
# “Also recorded” adds a separate entry of the source. Where no end group is shown, it is not given here. [ ]: non-standard residue; d: D form. hCys = N[C@@H](CCS)C(=O)O
# Columns and labels:
# MatLyLu (MLL) cells = assay: SU-ECM invasion assay, rat MatLyLu (MLL) prostate carcinoma cells; assay type: cell-based; conditions: 10% FCS, varying concentrations
# Description: Adult Strongylocentrotus purpuratus sea urchins were obtained from Pacific BioMarine, and their embryos were cultured to the early pluteus stage in artificial sea water at 15° C. SU-ECM were prepared from them by treatment with nonionic detergent and strerilized by dilution in the appropriate media. […]
# (§1) Invasion assays were coded and scored blindly by microscopic examination under phase contrast at 200- and 400-fold magnification. Each cell contacting an SU-ECM was scored for its position relative to the exterior or interior surfaces. […] The minimum viability of the cells in each assay was always ascertained at the time of assay by determining the fraction of spread, adherent cells on the bottom of each well scored.
# (§2) An invasion frequency is defined as the fraction of cells in contact with basement membranes which were located in their interiors at the time of assay. […] Invasion frequencies were determined multiple times for each cell type assayed. For each type of cell assayed the mean and standard deviation of the invasion frequencies were calculated. […]
# metastatic disease = conditions: human, in vivo
# Description: Livant et al., “The PHSCN Sequence As An Anti-Invasive For Human Prostate Carcinoma Cells And As An Anti-Tumorigenic And Anti-Metastatic Agent For Rat Prostate Cancer” Cancer Research 60:309-320 (2000). […] In another embodiment, however, PHSCN (SEQ ID NO:86) peptide may also induce apoptosis. Furthermore, thrice-weekly PHSCN (SEQ ID NO:86) peptide intravenous doses (0.1 to 0.5 mg/kg) prevent cancer progression in metastatic ovarian cancer and metastatic prostate cancer patients in the Phase I clinical trial, for over a 6 to 10 month period.
# [1] = tested on: DU 145 human prostate carcinoma; conditions: mouse, in vivo; cited from earlier work
# [2] = tested on: neonatal, human fibroblasts; assay: SU-ECM basement membrane invasion by fibroblasts; assay type: cell-based; conditions: with or without serum as stated
# From the text: Since, during wound reepithelialization, keratinocytes migrate through the connective tissue of the provisional matrix to “wall off” portions of the wound, as well as through the adjacent stroma, it is not surprising that they are also stimulated to migrate through the matrix of SU-ECM invasion substrates by the PHSRN (SEQ ID NO: 1) sequence. […]
# as §1, §2
# [3] = tested on: DU-145 prostate cancer cells; assay: SU-ECM invasion assay, DU-145 prostate cancer cells; assay type: cell-based, human; conditions: DU-145 cells
# Description: (§3) Adult Strongylocentrotus purpuratus sea urchins were obtained from Pacific BioMarine, and their embryos were cultured to the early pluteus stage in artificial sea water at 15° C. SU-ECM were prepared from them by treatment with nonionic detergent and strerilized by dilution in the appropriate media.
# (§4) Cells were harvested by rinsing in Hanks' balanced salt solution, followed by brief treatment with 0.25% trypsin, 0.02% EDTA, and pelleting and resuspension in the appropriate medium with or without 5% FCS at a density of about 50,000 cells per ml. […]
# as §1, §2
# [4] = tested on: SUM-52 PE breast cancer cells; assay: SU-ECM invasion assay, SUM-52 PE breast cancer cells; assay type: cell-based, human; conditions: SUM-52 cells
# Description: as §3, §4, §1, §2
# [5] = tested on: normal, neonatal fibroblasts; assay: Invasion of gelatin- and antibody-depleted Matrigel by fibroblasts; assay type: cell-based; conditions: gelatin plus antibody panned Matrigel
# Description: Anti-fibronectin antibody-coated wells: Wells of a 24-well plate were coated with an anti-fibronectin antibody. A mouse monoclonal antibody to human fibronectin was obtained from Oncogene Science (Catalog #CP13). Each well was incubated with 1 ml of antibody at a concentration of 30 μl/ml for 2 hours at room temperature. Each well was then incubated with a solution of 3% BSA in PBS for 2 hours at room temperature. Following the two incubation periods, the wells were thoroughly washed with PBS and stored at −20° C. until use.
# Depleting Matrigel of Fibronectin: Matrigel was panned over eight gelatin-coated wells (as described above in Example 2) to remove most of the fibronectin and its fragments. Thereafter, the Matrigel was placed in the antibody-coated wells to remove any remaining fragments of fibronectin which contain the cell-binding domain but not the gelatin-binding domain. The Matrigel was incubated in an ice bucket on an orbital shaker at 4° C. for 2 hours. Once the Matrigel was depleted, it was collected in Eppendorf tubes. The firbonectin-depleted Matrigel was plated on a 48-well plate (150 μl/well), sterilized under a UV light for 10 minutes and incubated at 37° C. overnight. The Matrigel formed a gel and the following day, cells were added to the wells. […]
# [6] = tested on: DU-145 metastatic prostate cancer cells; assay: Invasion of fibronectin-depleted Matrigel by DU-145 cells; assay type: cell-based, human; conditions: 0.5 μl/ml peptide added to gelatin-panned Matrigel
# Description: This example describes a purification approach for removal of plasma fibronectin (and/or cellular fibronectin) from a substrate (Matrigel). In this example, removal was attempted by successive panning on gelatin. Eight wells of 24-well plate were coated with a 2% gelatin solution (the gelatin was obtained from Becton Dickinson Labware, Catalog #11868). The wells were filled with the gelatin solution which had been heated to 50° C. and incubated for 3 minutes. Then the solution was removed and the wells were allowed to air dry. Following drying, the wells were thoroughly rinsed with ddH2O followed by two rinses with PBS. The plates were again allowed to dry; thereafter they were stored at −20° C. until use. Matrigel was thawed on ice and then added to one of the wells of a gelatin-coated plate (between 800 μl and 1 ml of Matrigel was added to a well of a 24-well plate). The plate was placed in a bucket of ice in a […] room on an orbital shaker where the Matrigel was incubated in the well for two hours (although overnight incubation can be used). Following the incubation, the Matrigel was moved from the first well to a second well and then incubated for two hours under the same conditions. This process was repeated until the Matrigel had been incubated on all eight wells of the gelatin-coated plate.
# Following the depletion of the Matrigel, it was collected in Eppendorf tubes. […]
# keratinocytes = assay: SU-ECM invasion by keratinocytes; assay type: cell-based; conditions: serum-free SU-ECM
# From the text: Since, during wound reepithelialization, keratinocytes migrate through the connective tissue of the provisional matrix to “wall off” portions of the wound, as well as through the adjacent stroma, it is not surprising that they are also stimulated to migrate through the matrix of SU-ECM invasion substrates by the PHSRN (SEQ ID NO: 1) sequence. […] Recruitment of fibroblasts or monocytes/macrophages whose paracrine, regulatory effects on a variety of neighboring cells are required for the early stages of wound healing is contemplated as a highly efficient and effective way to stimulate the cascade of regulatory interactions involved in wound healing because these cells will secrete the active factors or cytokines in the correct temporal sequences and spatial locations to ensure their optimal activities. Because it efficiently induces keratinocyte migration through the extracellular matrix in vitro, the PHSRN (SEQ ID NO: 1) peptide is also likely to stimulate wound reepithelialization directly. The use of the PHSRN (SEQ ID NO: 1) peptide or structurally related molecules according to the present invention is to stimulate the entry of cells such as fibroblasts and monocyte/macrophages into the provisional matrix of a wound, so that the entering cells themselves secrete the factors and cytokines active in inducing or potentiating wound healing. […]
# [7] = target: T1, immobilized α5β1 integrin (UniProt P08648 42-1049; P05556 21-798); assay: saturation binding of PHSCNGGK(biotin) to immobilized α5β1 integrin, read as optical density at 490 nm (FIG. 11)
# T1 construct: also called α5β1 integrin receptor; α5β1 integrin fibronectin receptor
# T1 sequence (P08648 42-1049, chain 1 of 2): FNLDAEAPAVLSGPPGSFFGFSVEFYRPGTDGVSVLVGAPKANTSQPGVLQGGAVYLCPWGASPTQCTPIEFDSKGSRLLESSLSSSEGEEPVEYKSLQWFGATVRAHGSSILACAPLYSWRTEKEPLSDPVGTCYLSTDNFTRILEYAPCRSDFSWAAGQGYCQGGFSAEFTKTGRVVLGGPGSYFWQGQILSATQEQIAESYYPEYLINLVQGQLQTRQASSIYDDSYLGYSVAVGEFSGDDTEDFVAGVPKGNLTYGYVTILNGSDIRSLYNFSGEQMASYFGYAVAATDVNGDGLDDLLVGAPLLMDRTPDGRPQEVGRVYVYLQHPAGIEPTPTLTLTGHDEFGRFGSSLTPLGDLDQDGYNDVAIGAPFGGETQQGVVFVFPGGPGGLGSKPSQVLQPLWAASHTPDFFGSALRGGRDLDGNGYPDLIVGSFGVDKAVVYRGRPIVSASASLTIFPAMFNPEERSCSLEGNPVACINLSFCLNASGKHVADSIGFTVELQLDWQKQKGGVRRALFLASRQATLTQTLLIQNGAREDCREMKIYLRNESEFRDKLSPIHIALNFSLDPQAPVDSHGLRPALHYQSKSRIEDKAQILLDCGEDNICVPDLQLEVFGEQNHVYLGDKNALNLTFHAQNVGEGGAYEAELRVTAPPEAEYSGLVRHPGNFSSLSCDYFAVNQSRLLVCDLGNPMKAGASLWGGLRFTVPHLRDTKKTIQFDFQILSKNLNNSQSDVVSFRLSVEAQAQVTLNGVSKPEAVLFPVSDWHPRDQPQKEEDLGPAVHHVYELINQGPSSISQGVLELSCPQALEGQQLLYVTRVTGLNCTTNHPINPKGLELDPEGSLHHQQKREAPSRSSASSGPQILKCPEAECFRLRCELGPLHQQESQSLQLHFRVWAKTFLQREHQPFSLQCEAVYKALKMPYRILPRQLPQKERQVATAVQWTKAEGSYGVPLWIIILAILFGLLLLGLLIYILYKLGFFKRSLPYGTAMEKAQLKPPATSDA
# T1 sequence (P05556 21-798, chain 2 of 2): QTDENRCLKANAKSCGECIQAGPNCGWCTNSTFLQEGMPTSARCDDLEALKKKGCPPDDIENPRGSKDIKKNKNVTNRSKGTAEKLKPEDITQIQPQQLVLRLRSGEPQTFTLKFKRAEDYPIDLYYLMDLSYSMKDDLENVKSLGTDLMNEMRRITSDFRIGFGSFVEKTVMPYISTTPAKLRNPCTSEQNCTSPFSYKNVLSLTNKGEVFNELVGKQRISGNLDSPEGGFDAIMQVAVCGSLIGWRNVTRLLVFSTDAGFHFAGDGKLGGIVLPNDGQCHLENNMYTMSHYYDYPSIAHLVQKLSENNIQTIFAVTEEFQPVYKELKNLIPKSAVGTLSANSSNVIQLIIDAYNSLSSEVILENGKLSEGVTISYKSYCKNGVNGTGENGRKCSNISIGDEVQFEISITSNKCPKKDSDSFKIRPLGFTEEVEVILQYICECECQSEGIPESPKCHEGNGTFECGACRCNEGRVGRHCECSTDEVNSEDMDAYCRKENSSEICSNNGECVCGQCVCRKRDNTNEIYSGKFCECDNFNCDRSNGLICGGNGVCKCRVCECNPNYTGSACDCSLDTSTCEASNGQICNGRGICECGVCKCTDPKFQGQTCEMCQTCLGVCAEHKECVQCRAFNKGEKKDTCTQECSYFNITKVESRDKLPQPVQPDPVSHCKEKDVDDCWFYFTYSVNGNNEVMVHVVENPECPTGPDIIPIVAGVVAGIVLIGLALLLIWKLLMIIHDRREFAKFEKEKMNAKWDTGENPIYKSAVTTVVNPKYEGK
molecule,measurement,setting,value
PHS(hC)N: homo-cysteine containing peptide (PHS[hCys]N),inhibition of serum-induced invasion,MatLyLu (MLL) cells,substantially inhibits invasion at lower concentrations; also recorded: completely inhibits invasion at higher concentrations
"Ac-PHSCN-NH2 (N-terminus and C-terminus assumed) [PHSCN, Pro-His-Ser-Cys-Asn]",total treatment-emergent serious adverse events,metastatic disease,11
same,tolerability of treated mice,[1],no obvious loss of vigor or difficulty in healing
intact plasma fibronectin: purified bovine plasma fibronectin (Sigma),fibroblast invasion of SU-ECM basement membranes,[2],fails to stimulate fibroblast invasion
Pro-His-Ser-Arg-Asn (PHSRN),induction of invasion of SU-ECM,[3],induced to invade the SU-ECM substrate
same,induction of invasion of SU-ECM,[4],induced to invade the SU-ECM substrate
same,fibroblast invasiveness on depleted Matrigel,[5],invasiveness of the fibroblasts could be induced
same,DU-145 invasiveness on depleted Matrigel,[6],sufficient to restore the full DU-145 invasiveness
same,keratinocyte invasion,keratinocytes,stimulate keratinocyte invasion of serum-free SU-ECM
same,fibroblast invasion of SU-ECM basement membranes,[2],induced with the PHSRN (SEQ ID NO:1) peptide to invade serum-free SU-ECM
"Ac-PHSCNGG-{K(biotin)-NH2} (also: further groups not given here, also called biotinylated PHSCN peptide) [Ac-PHSCNGGK(biotin)-NH2]",Kd,[7],272 nM
